Test results from the supplement of paper PMC5579334.
± gives the standard deviation of the averaged measurements.

How the values were obtained:
YST-1 [1] = experiment: % inhibition of CellTiter-Glo viability at highest tested concentration (72 h), relative to DMSO and benzethonium chloride controls; higher = more inhibition
Outline: (§1)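 For this screen, 384-well plates were preprinted with each compound at five concentrations in 10-fold steps and seeded with MPNST cell lines or primary human Schwann cells at 750–1000 cells per well. Incubation lasted 72 h at 37 °C, 5% CO2, and CellTiter-Glo ATP luminescence, scaled between vehicle and positive-control wells and averaged over duplicates where available, served as viability. Logistic fits with four parameters were applied. Relative IC50 (censored at the top concentration) and drug sensitivity score derive from these fits, and percent inhibition is at the top concentration.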

[2] = test system: HSC1 (primary human Schwann cells); experiment: as above
Outline: as §1

S1507-2 [3] = experiment: as above
Outline: as §1

HS-PSS [4] = experiment: as above
Outline: as §1

S462 [5] = experiment: as above
Outline: as §1

HS-Sch-2 [6] = experiment: as above
Outline: as §1

STS26T [7] = experiment: as above
Outline: as §1

[8] = test system: HSC2 (primary human Schwann cells); experiment: as above
Outline: as §1

ST8814 [9] = experiment: as above
Outline: as §1

[10] = test system: HSC1 (primary human Schwann cells); experiment: drug sensitivity score (DSS, CellTox-Green cytotoxicity, 72 h) (DSS (dimensionless)); higher = more cytotoxic; extreme values may be limits of the assay
Outline: (§2)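 MPNST cell lines and primary human Schwann cells were grown for 72 h at 37 °C in 384-well plates containing five 10-fold compound dilutions. CellTox-Green, added before seeding at a final 1:1000 dilution, gave fluorescence from DNA released by disrupted cells, and signals were scaled to vehicle and positive-control wells. Curves were fitted with a four-parameter logistic model. Drug sensitivity score and relative IC50 come from these fits, with IC50 censored at the top concentration.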

S1507-2 [11] = experiment: as above
Outline: as §2

HS-PSS [12] = experiment: as above
Outline: as §2

STS26T [13] = experiment: as above
Outline: as §2

[14] = test system: HSC2 (primary human Schwann cells); experiment: as above
Outline: as §2

ST8814 [15] = experiment: as above
Outline: as §2

YST-1 [16] = experiment: drug sensitivity score (DSS, CellTiter-Glo viability, 72 h) (DSS (dimensionless)); higher = more sensitive; extreme values may be limits of the assay
Outline: as §1

[17] = test system: HSC1 (primary human Schwann cells); experiment: as above
Outline: as §1

S1507-2 [18] = experiment: as above
Outline: as §1

HS-PSS [19] = experiment: as above
Outline: as §1

S462 [20] = experiment: as above
Outline: as §1

HS-Sch-2 [21] = experiment: as above
Outline: as §1

STS26T [22] = experiment: as above
Outline: as §1

[23] = test system: HSC2 (primary human Schwann cells); experiment: as above
Outline: as §1

ST8814 [24] = experiment: as above
Outline: as §1

With O=C(CCBr)N1CCN(C(=O)CCBr)CC1 [Pipobroman] (max concentration tested 10000 nM) the “% inhibition” value (YST-1 [1]) was 4.98%, the “% inhibition” value [2] was 0.741% and the “% inhibition” value (S1507-2 [3]) was -11.3 ± 2.3%. For the same molecule, the “% inhibition” value (HS-PSS [4]) was 1.73%, the “% inhibition” value (S462 [5]) was -17 ± 7.2% and the “% inhibition” value (HS-Sch-2 [6]) was 9.93%. The “% inhibition” value (STS26T [7]) was -2.55%, the “% inhibition” value [8] was 0.945% and the “% inhibition” value (ST8814 [9]) was -3.56%. It also gave a drug sensitivity score [10] of 0, a drug sensitivity score (S1507-2 [11]) of 0 and a drug sensitivity score (HS-PSS [12]) of 0. The drug sensitivity score (STS26T [13]) was 0, the drug sensitivity score [14] was 0 and the drug sensitivity score (ST8814 [15]) was 0. For the same molecule, the drug sensitivity score (YST-1 [16]) was 0, the drug sensitivity score [17] was 0 and the drug sensitivity score (S1507-2 [18]) was 0. The drug sensitivity score (HS-PSS [19]) was 0, the drug sensitivity score (S462 [20]) was 0 and the drug sensitivity score (HS-Sch-2 [21]) was 0. It also gave a drug sensitivity score (STS26T [22]) of 0, a drug sensitivity score [23] of 0 and a drug sensitivity score (ST8814 [24]) of 0.
COc1ccc(S(=O)(=O)Nc2cccnc2Nc2ccc(O)cc2)cc1 [ABT-751] (max concentration tested 10000 nM) was tested, and the “% inhibition” value (YST-1 [1]) was 83.1%, the “% inhibition” value [2] was 76.6% and the “% inhibition” value (S1507-2 [3]) was 79.7 ± 4.9%. For the same molecule, the “% inhibition” value (HS-PSS [4]) was 69%, the “% inhibition” value (S462 [5]) was 96.52 ± 0.26% and the “% inhibition” value (HS-Sch-2 [6]) was 87.8%. For the same molecule, the “% inhibition” value (STS26T [7]) was 94.9%, the “% inhibition” value [8] was 86% and the “% inhibition” value (ST8814 [9]) was 86%. The drug sensitivity score [10] was 7.1, the drug sensitivity score (S1507-2 [11]) was 11.9 ± 0.12 and the drug sensitivity score (HS-PSS [12]) was 0. The drug sensitivity score (STS26T [13]) was 19, the drug sensitivity score [14] was 12.9 and the drug sensitivity score (ST8814 [15]) was 13.5. It also gave a drug sensitivity score (YST-1 [16]) of 10.8, a drug sensitivity score [17] of 12.3 and a drug sensitivity score (S1507-2 [18]) of 14 ± 0.54. For the same molecule, the drug sensitivity score (HS-PSS [19]) was 3.98, the drug sensitivity score (S462 [20]) was 16.8 ± 0.83 and the drug sensitivity score (HS-Sch-2 [21]) was 14.3. The drug sensitivity score (STS26T [22]) was 16.3, the drug sensitivity score [23] was 13.5 and the drug sensitivity score (ST8814 [24]) was 15.1.
For CO[C@@]12[C@H](COC(N)=O)C3=C(C(=O)C(C)=C(N)C3=O)N1C[C@@H]1N[C@@H]12 [Mitomycin C] (max concentration tested 10000 nM), the “% inhibition” value (YST-1 [1]) was 55.7%, the “% inhibition” value [2] was 52.1% and the “% inhibition” value (S1507-2 [3]) was 69.5 ± 1.9%. For the same molecule, the “% inhibition” value (HS-PSS [4]) was 16.2%, the “% inhibition” value (S462 [5]) was 68.5 ± 1.9% and the “% inhibition” value (HS-Sch-2 [6]) was 28.5%. The “% inhibition” value (STS26T [7]) was 50.2%, the “% inhibition” value [8] was 51.3% and the “% inhibition” value (ST8814 [9]) was 77.4%. The drug sensitivity score [10] was 2.29, the drug sensitivity score (S1507-2 [11]) was 2.38 ± 3 and the drug sensitivity score (HS-PSS [12]) was 0. It also gave a drug sensitivity score (STS26T [13]) of 1.57, a drug sensitivity score [14] of 2.91 and a drug sensitivity score (ST8814 [15]) of 5.46. It also gave a drug sensitivity score (YST-1 [16]) of 4.11, a drug sensitivity score [17] of 2.63 and a drug sensitivity score (S1507-2 [18]) of 3.18 ± 0.05. The drug sensitivity score (HS-PSS [19]) was 0.31, the drug sensitivity score (S462 [20]) was 3.23 ± 0.21 and the drug sensitivity score (HS-Sch-2 [21]) was 0.9. The drug sensitivity score (STS26T [22]) was 2.31, the drug sensitivity score [23] was 2.34 and the drug sensitivity score (ST8814 [24]) was 3.61.
CC(C)Cn1cnc2c(N)nc3ccccc3c21 [Imiquimod] (max concentration tested 2500 nM) was tested, and the “% inhibition” value (YST-1 [1]) was 4.76%, the “% inhibition” value [2] was -1.61% and the “% inhibition” value (S1507-2 [3]) was -4.77 ± 3.7%. The “% inhibition” value (HS-PSS [4]) was 14.8%, the “% inhibition” value (S462 [5]) was 1.41 ± 6.7% and the “% inhibition” value (HS-Sch-2 [6]) was 16.9%. The “% inhibition” value (STS26T [7]) was 3.07%, the “% inhibition” value [8] was 6.67% and the “% inhibition” value (ST8814 [9]) was -6.88%. For the same molecule, the drug sensitivity score [10] was 0, the drug sensitivity score (S1507-2 [11]) was 0 and the drug sensitivity score (HS-PSS [12]) was 0. The drug sensitivity score (STS26T [13]) was 0, the drug sensitivity score [14] was 0 and the drug sensitivity score (ST8814 [15]) was 0. For the same molecule, the drug sensitivity score (YST-1 [16]) was 0, the drug sensitivity score [17] was 0 and the drug sensitivity score (S1507-2 [18]) was 0. The drug sensitivity score (HS-PSS [19]) was 0.9, the drug sensitivity score (S462 [20]) was 0 and the drug sensitivity score (HS-Sch-2 [21]) was 0.45. The drug sensitivity score (STS26T [22]) was 0, the drug sensitivity score [23] was 0 and the drug sensitivity score (ST8814 [24]) was 0.
